Patent US20060275294A1, “METHOD OF PREVENTION AND TREATMENT OF AGING, AGE-RELATED DISORDERS AND/OR AGE-RELATED MANIFESTATIONS INCLUDING ATHEROSCLEROSIS, PERIPHERAL VASCULAR DISEASE, CORONARY ARTERY DISEASE, OSTEOPOROSIS, ARTHRITIS, TYPE 2 DIABETES, DEMENTIA, ALZHEIMERS DISEASE AND CANCER” (priority 2002, published 2006)
Like-named read-outs stand apart in the source and are kept apart here.

Experiments:
[1] = tested on: interleukin (IL)-6 bioactivity; details: cited from earlier work
[2] = tested on: NF-kappaB; details: pretreatment, rat VSMCs; cited from earlier work
[3] = biological target: isopentenyl diphosphate isomerase (Homo sapiens, UniProt Q13907); details: cited from earlier work
isopentenyl diphosphate isomerase, sequence (Q13907 whole entry): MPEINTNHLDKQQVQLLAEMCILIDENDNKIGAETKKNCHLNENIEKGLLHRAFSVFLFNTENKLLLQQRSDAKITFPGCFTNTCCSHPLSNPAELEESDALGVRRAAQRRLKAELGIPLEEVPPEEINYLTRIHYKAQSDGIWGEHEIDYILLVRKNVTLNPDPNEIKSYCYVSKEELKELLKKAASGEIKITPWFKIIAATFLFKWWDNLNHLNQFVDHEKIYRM

[4] = biological target: GGPP synthase (Homo sapiens, UniProt O95749); details: cited from earlier work
GGPP synthase, sequence (O95749 whole entry, species assumed): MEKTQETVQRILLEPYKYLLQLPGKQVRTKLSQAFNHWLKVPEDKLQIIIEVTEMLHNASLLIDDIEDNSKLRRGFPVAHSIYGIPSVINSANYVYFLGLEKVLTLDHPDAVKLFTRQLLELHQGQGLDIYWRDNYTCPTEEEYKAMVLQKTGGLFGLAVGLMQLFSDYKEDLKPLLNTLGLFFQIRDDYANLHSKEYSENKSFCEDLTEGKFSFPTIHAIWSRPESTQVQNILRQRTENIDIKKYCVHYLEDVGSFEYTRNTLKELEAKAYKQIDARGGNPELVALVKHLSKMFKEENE

[5] = biological target: Recombinant human farnesyl diphosphate synthase (Homo sapiens, UniProt P14324); details: cited from earlier work
Recombinant human farnesyl diphosphate synthase, sequence (P14324 whole entry): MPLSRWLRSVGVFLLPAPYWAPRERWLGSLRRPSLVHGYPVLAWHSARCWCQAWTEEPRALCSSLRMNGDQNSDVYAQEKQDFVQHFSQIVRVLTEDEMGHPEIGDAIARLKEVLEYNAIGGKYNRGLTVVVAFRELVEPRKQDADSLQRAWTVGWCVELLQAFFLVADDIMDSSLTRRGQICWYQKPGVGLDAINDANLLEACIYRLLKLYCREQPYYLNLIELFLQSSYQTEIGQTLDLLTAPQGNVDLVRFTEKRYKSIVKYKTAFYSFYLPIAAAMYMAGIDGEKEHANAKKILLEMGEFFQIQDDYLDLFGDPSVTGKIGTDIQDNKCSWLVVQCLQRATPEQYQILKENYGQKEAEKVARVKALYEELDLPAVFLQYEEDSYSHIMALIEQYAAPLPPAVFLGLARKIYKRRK

[6] = tested on: human prostate carcinoma PC-3 cell line; details: cited from earlier work
[7] = tested on: cultured human pituitary adenoma cells; set-up: mean inhibition of thymidine uptake (+/−SD inhibition of basal) / mean inhibition of thymidine uptake: unit of the concentration uncertain; details: cited from earlier work
[8] = tested on: IL-1 beta, IL-6, and TNF-alpha; details: cited from earlier work
[9] = tested on: STAT1 and STAT3; details: cited from earlier work
[10] = tested on: New Zealand White rabbits; details: cited from earlier work
[11] = tested on: rat vascular smooth muscle cells; details: cited from earlier work
[12] = tested on: experimental diabetic rat model; details: cited from earlier work
[13] = 54 mg/day; cited from earlier work
[14] = tested on: mice; details: cited from earlier work
[15] = tested on: cultured human astrocytes; details: cited from earlier work
[16] = tested on: spontaneously hypertensive rats (SHR); details: cited from earlier work
[17] = tested on: T lymphoma cells; details: cited from earlier work
[18] = tested on: human breast cancer MCF-7 cells; details: cited from earlier work
[19] = tested on: orthotopic prostate carcinoma model of PC-3 cells in nude mice; details: cited from earlier work
[20] = tested on: three human pancreatic cancer cell types; details: three cell lines; read-out: mean IC(50) proliferation; cited from earlier work
[21] = tested on: renal cell carcinoma cell line, GRC-1; details: 20 micromol/L, 72 hours; cited from earlier work
[22] = biological target: T1, epidermal growth factor receptor tyrosine kinase (Rattus norvegicus, UniProt G3V6K6); details: SHR vs normotensive Wistar rat cells; cited from earlier work
T1 construct: measured thymidine incorporation in epidermal growth factor-stimulated vascular smooth muscle cells; endogenous in cells; host or cells: aortic vascular smooth muscle cells of SHR and normotensive rats
T1 sequence (G3V6K6 25-1209): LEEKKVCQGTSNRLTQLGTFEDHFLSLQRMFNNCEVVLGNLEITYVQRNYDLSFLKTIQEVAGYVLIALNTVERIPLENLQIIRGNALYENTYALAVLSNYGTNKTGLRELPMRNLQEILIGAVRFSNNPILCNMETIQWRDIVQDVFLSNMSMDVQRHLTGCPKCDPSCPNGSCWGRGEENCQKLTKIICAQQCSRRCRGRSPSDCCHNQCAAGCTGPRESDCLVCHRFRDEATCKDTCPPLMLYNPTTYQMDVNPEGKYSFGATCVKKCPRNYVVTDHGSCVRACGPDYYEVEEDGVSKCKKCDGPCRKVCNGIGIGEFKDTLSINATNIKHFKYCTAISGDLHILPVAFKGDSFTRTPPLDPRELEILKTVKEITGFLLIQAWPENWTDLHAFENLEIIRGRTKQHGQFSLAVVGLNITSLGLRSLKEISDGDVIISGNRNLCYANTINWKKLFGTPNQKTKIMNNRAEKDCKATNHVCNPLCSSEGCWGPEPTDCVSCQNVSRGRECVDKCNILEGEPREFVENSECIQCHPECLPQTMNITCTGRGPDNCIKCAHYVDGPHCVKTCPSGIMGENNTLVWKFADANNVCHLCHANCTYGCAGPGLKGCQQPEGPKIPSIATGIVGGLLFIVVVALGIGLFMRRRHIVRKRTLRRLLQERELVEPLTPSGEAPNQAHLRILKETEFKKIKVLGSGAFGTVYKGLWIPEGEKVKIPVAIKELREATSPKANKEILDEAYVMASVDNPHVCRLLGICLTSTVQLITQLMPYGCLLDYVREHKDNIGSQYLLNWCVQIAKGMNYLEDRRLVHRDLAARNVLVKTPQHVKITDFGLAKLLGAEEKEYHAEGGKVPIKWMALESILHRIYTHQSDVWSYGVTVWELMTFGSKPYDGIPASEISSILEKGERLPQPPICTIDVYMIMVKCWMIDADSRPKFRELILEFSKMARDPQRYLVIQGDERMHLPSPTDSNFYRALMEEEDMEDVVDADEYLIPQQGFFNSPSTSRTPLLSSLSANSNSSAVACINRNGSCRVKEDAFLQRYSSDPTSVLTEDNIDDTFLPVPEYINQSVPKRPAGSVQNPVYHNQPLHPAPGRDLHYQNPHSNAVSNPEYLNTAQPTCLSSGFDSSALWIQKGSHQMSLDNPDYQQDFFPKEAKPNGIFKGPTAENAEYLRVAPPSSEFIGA

[23] = tested on: human monocytic THP-1 cells; details: 10 microM, 24 h pretreatment; cited from earlier work
[24] = tested on: rat primary astrocytes, microglia, and macrophages; details: cited from earlier work
[25] = tested on: human T, B and myeloma tumor cells; details: by promoting apoptosis; cited from earlier work
[26] = tested on: patients with osteoarthritis; test: Osteoarthritis patients in applicant's clinic; type: in vivo, human
[27] = tested on: patients with Paget's bone disease; details: end of study, cited from earlier work
[28] = tested on: diabetic patients with active Charcot neuroarthropathy; details: cited from earlier work
[29] = tested on: Interleukin-6; details: infusion; cited from earlier work
[30] = tested on: osteoblasts; details: cited from earlier work
[31] = severe chronic renal failure or dialysis; cited from earlier work
[32] = tested on: human epidermoid head and neck KB and lung H1355 cancer cells; details: read-out: IC(50) growth inhibition; 48 h exposure; cited from earlier work
[33] = biological target: T2, IKK (Homo sapiens, UniProt O14920+O15111); details: human epithelial cells; cited from earlier work
T2 construct: endogenous in cells; also 'human epithelial cells'
T2 sequence (O14920 whole entry): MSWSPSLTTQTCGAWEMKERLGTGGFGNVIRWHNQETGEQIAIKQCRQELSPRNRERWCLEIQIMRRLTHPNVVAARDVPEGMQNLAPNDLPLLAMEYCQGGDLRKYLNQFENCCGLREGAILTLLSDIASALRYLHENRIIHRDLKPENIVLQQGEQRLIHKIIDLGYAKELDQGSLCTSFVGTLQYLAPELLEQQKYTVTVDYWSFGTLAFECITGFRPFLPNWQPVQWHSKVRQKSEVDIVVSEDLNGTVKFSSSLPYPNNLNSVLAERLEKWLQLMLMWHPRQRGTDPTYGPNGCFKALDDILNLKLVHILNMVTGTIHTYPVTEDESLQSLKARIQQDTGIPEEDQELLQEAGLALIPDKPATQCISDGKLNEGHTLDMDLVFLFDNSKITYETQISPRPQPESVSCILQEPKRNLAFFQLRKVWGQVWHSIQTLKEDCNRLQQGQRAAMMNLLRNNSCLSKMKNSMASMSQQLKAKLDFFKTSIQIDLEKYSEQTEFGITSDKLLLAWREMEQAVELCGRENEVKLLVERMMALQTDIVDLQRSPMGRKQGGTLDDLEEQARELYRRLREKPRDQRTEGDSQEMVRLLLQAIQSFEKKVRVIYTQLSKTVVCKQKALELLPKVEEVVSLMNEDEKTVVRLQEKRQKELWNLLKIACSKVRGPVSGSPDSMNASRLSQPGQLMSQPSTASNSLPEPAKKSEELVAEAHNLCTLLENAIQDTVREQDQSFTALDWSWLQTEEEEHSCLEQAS
T2 sequence (O15111 whole entry): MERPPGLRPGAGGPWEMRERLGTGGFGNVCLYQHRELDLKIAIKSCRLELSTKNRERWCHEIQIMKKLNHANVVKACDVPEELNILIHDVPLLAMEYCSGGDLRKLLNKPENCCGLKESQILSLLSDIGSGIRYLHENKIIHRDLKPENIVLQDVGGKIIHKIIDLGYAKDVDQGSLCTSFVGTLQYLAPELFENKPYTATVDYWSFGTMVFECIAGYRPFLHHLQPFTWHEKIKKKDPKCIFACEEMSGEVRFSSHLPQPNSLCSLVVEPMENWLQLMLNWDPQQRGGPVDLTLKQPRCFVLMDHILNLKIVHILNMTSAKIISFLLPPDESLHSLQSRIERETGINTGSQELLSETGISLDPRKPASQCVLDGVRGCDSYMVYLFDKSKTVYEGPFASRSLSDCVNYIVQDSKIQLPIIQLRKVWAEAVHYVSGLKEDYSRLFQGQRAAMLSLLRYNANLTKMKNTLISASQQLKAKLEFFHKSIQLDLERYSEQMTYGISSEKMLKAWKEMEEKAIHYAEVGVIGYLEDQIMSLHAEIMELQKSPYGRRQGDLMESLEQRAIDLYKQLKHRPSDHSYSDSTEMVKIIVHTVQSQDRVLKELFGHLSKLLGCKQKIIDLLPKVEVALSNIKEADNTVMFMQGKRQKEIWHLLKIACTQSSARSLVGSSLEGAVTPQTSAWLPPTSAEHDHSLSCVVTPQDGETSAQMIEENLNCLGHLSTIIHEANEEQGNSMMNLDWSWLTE
T2 sequence (Q9Y6K9 whole entry partner): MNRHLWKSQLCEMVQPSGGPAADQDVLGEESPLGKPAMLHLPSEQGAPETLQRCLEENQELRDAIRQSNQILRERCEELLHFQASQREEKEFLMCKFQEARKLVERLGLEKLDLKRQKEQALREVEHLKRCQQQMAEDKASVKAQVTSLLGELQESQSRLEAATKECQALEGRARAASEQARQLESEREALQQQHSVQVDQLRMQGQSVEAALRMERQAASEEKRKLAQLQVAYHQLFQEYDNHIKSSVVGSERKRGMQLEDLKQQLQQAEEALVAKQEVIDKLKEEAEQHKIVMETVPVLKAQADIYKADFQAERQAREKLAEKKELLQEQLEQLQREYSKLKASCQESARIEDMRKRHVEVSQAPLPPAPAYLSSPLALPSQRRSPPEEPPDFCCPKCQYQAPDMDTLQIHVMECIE

[34] = tested on: IKK; details: 50 to 200 μM, intestinal epithelial cell line; cited from earlier work
[35] = tested on: STAT-1; details: cited from earlier work
[36] = tested on: Male Wistar rats; details: cited from earlier work
[37] = tested on: murine neuron-like cells (N2a) and primary neurons with Swedish mutant APP; details: cited from earlier work
[38] = tested on: Tg APPsw transgenic mice; details: mouse, in vivo; cited from earlier work
[39] = tested on: mouse mammary carcinoma 4T1 cells; details: dose- and time-dependent; cited from earlier work
[40] = tested on: MMTV-Her-2/neu NF639 cell; details: cited from earlier work
[41] = tested on: human epidermoid carcinoma (A431) cells; details: cited from earlier work
[42] = tested on: JB6 cell; details: cited from earlier work
[43] = tested on: NF-kappaB; details: cited from earlier work
[44] = tested on: neutrophil; details: in vitro; cited from earlier work

In the case of `O=c1c(-c2ccc(O[C@@H]3O[C@H](CO)[C@@H](O)[C@H](O)[C@H]3O)cc2)coc2cc(O)cc(O)c12` [Sophoricoside], the IC50 [1] is listed as 6.1 µM.
In the case of `Cc1ccc(S(=O)(=O)N[C@@H](Cc2ccccc2)C(=O)CCl)cc1` [TPCK], the “Sar1 Ang II-induced NF-kappaB activation and induction of endogenous IL-6 gene expression” value [2] is listed as “completely blocked”.
For `NCCCC(O)(P(=O)(O)O)P(=O)(O)O` [alendronate], the “inhibition of isopentenyl diphosphate isomerase” value [3] is given as “did not inhibit” and the “inhibition of GGPP synthase” value [4] is given as “did not inhibit”.
For `O=P(O)(O)C(Cl)(Cl)P(=O)(O)O` [clodronate], the “inhibition of recombinant farnesyl diphosphate synthase” value [5] is listed as “not at all”.
For `O=c1c(-c2ccc(O)cc2)coc2cc(O)cc(O)c12` [genistein, 4′,5,7-trihydroxyisoflavone], the “IL-6- and OM-mediated effects (growth, resistance to etoposide and cisplatin)” value [6] is listed as “inhibited”, the “mean inhibition of thymidine uptake (+/−SD inhibition of basal)” value ([7]; 74 (unit uncertain)) is listed as 61.96+/−18.96% and the “mean inhibition of thymidine uptake” value ([7]; 740 (unit uncertain)) is listed as 92.65+/−8.59%. The “Epidermal growth factor stimulated thymidine uptake” value ([7]; clinically nonfunctioning adenomas) was “inhibited”, the “LPS-induced increase in IL-1 beta, IL-6, and TNF-alpha mRNA levels” value ([8]; 37 microM) was “completely or more than 80% blocked” and the “LPS activation of NF-kappa B” value [8] was “reduced”. For the same molecule, the “LPS-induced IL-6 protein synthesis and IL-6 bioactivity” value [8] was “reduced to baseline levels”, the “CuLDL-induced enhancement of STAT1 and STAT3 Tyr-phosphorylation and DNA-binding activity” value [9] was “markedly prevented” and the “average cross sectional area of atherosclerotic lesion” value ([10]; hyperlipidemic plus genistein diet, 4 and half months) was 0.997 mm2. The MMP-3 expression ([10]; western blotting, vs HD group) was “reduction”, the “expression of IL-6 mRNA induced by Ang II” value [11] was “completely abolished” and the “retinal albumin by Western blot” value ([12]; 300 mg) was “decreased”. The “retinal vascular leakage of radiolabeled sucrose” value ([12]; 150 or 300 mg/kg food, 6 months, vs diabetic control) was “significantly less”, the “attenuating menopause-related bone loss” value [13] was “as effective as hormone replacement therapy” and the “serum levels of autoantibodies to collagen II” value ([14]; immunized mice) was “significantly lower”. The “DTH reaction to oxazolone and granulocyte-mediated response” value ([14]; vs control mice) was “significantly suppressed”, the “stimulatory effect of PDGF on sAPPalpha” value [15] was “blocked” and the “wall thickness of the basilar artery” value ([16]; 1 mg/kg chow, 2 months) was “reduced the wall thickness significantly”. The “vasodilatation induced by ACh and Y-26763” value [16] was “significantly improved”, the “nuclear NF-kappa B levels” value [17] was “marked reduction” and the “growth of MCF-7 cells” value [18] was “significantly inhibit the growth”. For the same molecule, the “inhibition of primary tumor growth” value ([19]; combined with radiation 5 Gy) was 87%, the “inhibition of primary tumor growth” value ([19]; genistein alone, 5 mg/d p.o.) was 30% and the “size of lymph nodes” value ([19]; genistein alone) was “increased the size of lymph nodes”. For the same molecule, the IC50 [20] was 223 µM, the “band of p27, Western blot” value [21] was 65.4+/−4.7 gray scale value and the “cells in G2 phase” value [21] was 26.2%. The “cells in G(1) phase” value [21] was 73.8% and the “50% inhibitory dose (IC50) for thymidine incorporation” value [22] was “higher for the SHR vascular smooth muscle cells”.
For `CC[C@H](C)C(=O)O[C@H]1C[C@@H](C)C=C2C=C[C@H](C)[C@H](CC[C@@H]3C[C@@H](O)CC(=O)O3)[C@H]21` [lovastatin], the “hydrogen peroxide (H2O2) generation” value [23] is given as “markedly suppressed”, the “LPS-mediated activation of NF kappa B” value ([24]; astrocytes) is given as “Inhibition” and the “LPS-induced expression of TNF-alpha, IL-1beta, and IL-6” value ([24]; rat primary astrocytes, microglia, macrophages) is given as “inhibited”. For the same molecule, the “LPS and cytokine-mediated production of NO and expression of iNOS” value ([24]; rat primary astrocytes) was “inhibit” and the “effect on human T, B and myeloma tumor cells” value [25] was “cytotoxic effect”.
For `NCCC(O)(P(=O)(O)O)P(=O)(O)O` [pamidronate], the “pain in patients with osteoarthritis (with and without osteoporosis)” value [26] is listed as “pain reduction”, the HDL-C increased ([27]; 60 mg intravenous, three cycles every 3 months) is listed as 10.3% and the LDL-C decreased ([27]; 60 mg intravenous, three cycles) is listed as 5.5%. The TC/HDL-C decreased [27] was 12.5%, the “bone ALP and total ALP” value [27] was “significantly fell” and the “Urinary deoxypyridinoline (means+/−SEM)” value ([28]; single infusion 90 mg, 4 weeks) was 4.4+/−0.4 nmol/mmol creatinine. For the same molecule, the bone-specific alkaline phosphatase ([28]; single infusion 90 mg, after 4 weeks) was 14.1+/−1.2 u/l, the symptoms ([28]; vs placebo group) was “improvement” and the “mean serum levels of Interleukin-6” value [29] was “significantly decreased”. The “production by osteoblasts of interleukin-6” value [30] was “inhibit”, the “adverse effect of large intravenous dosages” value [31] was “marked hypocalcemia and/or hypophosphatemia” and the IC50 [32] was 25 µM.
In the case of Epigallocatechin-3-gallate [EGCG], the “TNF-α-mediated IKK activation” value [33] is listed as “inhibits”, the IKK activity [34] is listed as “inhibited” and the “INF-γ-induced STAT1 activation” value ([35]; T84 epithelial and THP-1 monocytes/macrophages) is listed as “significantly reduced”. For the same molecule, the “interferon-γ-induced STAT-1 activation” value ([35]; carcinoma-derived cell lines of non-gut origin) was “blocked”, the “phosphorylation of c-Jun” value ([36]; 10 mg/kg iv then 10 mg/kg/h, all time points) was “markedly attenuated” and the “Plasma IL-6 and creatine phosphokinase levels” value ([36]; 10 mg/kg iv then 10 mg/kg/h) was “decreased”. The “myocardial damage and myeloperoxidase activity” value ([36]; 10 mg/kg iv then 10 mg/kg/h) was “reduced”, the “reperfusion-induced activation of IKK, degradation of IκB-α, activation of NF-κB” value ([36]; rat, in vivo) was “reduced” and the “reduction of Abeta generation” value [37] was at most 54%. For the same molecule, the “beta-amyloid (Abeta) levels and plaques” value [38] was “decreased”, the “cell proliferation and apoptosis” value [39] was “inhibition of cell proliferation” and the “cell growth in culture and soft agar” value [40] was “inhibited”. For the same molecule, the “NF-kappaB levels in cytoplasm and nucleus” value ([41]; 10-80 microM, A431 cells and NHEK) was “lowering of NF-kappaB levels”, the “cell growth of A431 cells” value ([41]; dose-dependent, not in NHEK) was “inhibition of cell growth” and the “EGF- or TPA-induced JB6 cell transformation” value [42] was “inhibit”. The “activator protein-1 (AP-1) activation” value [42] was “inhibited”, the “NF-kappaB nuclear translocation and IL-6 secretion induced by UVB and UVA” value [43] was “dramatically inhibited” and the “chemokine induced neutrophil chemotaxis” value [44] was “dramatically inhibit”.
